{
  "source": "ChEMBL document CHEMBL1201862",
  "about": "“PubChem BioAssay data set” (2004)",
  "key": {"Saccharomyces cerevisiae": {"system": "Saccharomyces cerevisiae", "experiment": "S. cerevisiae Caspase-1/ASC signal blockers IC50, NALP1 inhibitor project selectivity test (AID 488863)", "assay_type": "functional, organism-based"}, "[1]": {"biological_target": "NACHT, LRR and PYD domains-containing protein 1 (Homo sapiens, UniProt Q9C000)", "sequence (Q9C000 1-1212 limits assumed)": "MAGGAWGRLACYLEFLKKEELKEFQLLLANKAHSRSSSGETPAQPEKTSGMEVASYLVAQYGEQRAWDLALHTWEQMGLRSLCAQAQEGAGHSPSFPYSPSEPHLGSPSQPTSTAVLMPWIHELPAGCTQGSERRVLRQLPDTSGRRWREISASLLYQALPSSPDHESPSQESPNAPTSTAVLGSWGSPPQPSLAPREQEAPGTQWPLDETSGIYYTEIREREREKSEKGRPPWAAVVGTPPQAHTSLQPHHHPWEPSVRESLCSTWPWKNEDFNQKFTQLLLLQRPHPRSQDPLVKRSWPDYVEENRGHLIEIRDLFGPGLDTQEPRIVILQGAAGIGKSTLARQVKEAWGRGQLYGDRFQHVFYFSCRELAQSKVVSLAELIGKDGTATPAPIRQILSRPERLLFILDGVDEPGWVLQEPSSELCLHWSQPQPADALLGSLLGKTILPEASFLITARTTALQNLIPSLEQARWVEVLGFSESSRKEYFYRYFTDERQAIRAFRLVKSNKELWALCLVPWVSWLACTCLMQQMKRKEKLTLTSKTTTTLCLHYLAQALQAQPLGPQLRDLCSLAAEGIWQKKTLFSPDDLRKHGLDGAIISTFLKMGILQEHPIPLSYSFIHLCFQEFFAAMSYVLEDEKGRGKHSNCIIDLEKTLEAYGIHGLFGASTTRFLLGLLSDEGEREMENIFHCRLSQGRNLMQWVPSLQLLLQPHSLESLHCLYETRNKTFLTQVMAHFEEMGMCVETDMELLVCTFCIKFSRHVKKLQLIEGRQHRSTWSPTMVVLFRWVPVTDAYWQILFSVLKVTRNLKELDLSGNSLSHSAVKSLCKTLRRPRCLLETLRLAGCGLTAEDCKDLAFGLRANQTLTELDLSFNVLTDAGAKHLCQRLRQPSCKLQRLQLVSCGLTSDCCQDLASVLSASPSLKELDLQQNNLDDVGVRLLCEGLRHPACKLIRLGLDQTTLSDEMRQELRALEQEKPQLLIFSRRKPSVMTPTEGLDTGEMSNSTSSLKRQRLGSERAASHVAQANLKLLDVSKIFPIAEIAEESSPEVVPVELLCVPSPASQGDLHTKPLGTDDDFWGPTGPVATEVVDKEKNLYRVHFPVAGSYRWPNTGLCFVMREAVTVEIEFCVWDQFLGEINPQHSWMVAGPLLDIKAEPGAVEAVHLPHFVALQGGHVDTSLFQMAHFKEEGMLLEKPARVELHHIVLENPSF", "sequence (Q9C000 1213-1473 limits assumed)": "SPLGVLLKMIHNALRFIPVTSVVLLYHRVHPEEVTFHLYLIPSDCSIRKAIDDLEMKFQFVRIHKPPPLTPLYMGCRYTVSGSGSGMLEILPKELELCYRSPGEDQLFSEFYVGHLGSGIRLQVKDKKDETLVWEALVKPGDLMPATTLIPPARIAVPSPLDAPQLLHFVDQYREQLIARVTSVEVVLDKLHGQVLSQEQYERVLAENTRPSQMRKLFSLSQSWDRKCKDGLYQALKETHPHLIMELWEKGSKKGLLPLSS", "experiment": "NALP1 inhibitors in yeast, dose response, luminescent (AID 488860)", "assay_type": "functional"}, "[2]": {"biological_target": "Alkaline phosphatase, placental type (Homo sapiens, UniProt P05187)", "sequence (P05187 whole entry)": "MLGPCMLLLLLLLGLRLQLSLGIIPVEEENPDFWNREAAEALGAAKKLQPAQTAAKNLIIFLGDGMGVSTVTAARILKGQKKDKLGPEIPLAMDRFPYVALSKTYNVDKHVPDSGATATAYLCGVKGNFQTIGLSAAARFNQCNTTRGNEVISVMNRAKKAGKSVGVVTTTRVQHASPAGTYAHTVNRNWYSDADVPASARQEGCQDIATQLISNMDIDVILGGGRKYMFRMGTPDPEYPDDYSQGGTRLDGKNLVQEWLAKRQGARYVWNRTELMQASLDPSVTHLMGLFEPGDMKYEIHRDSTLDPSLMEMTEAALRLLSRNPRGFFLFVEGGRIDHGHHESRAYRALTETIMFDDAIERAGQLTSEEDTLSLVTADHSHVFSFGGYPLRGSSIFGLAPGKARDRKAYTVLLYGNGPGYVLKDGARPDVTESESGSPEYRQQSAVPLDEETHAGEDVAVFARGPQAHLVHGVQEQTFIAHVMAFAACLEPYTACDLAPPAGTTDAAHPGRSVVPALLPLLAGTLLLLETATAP", "experiment": "human placental alkaline phosphatase inhibition – biochemical, luminescence, confirmation (AID 1512)", "assay_type": "functional"}, "[3]": {"biological_target": "T1, Alkaline phosphatase, tissue-nonspecific isozyme (Homo sapiens, UniProt P05186)", "T1 sequence (P05186 whole entry)": "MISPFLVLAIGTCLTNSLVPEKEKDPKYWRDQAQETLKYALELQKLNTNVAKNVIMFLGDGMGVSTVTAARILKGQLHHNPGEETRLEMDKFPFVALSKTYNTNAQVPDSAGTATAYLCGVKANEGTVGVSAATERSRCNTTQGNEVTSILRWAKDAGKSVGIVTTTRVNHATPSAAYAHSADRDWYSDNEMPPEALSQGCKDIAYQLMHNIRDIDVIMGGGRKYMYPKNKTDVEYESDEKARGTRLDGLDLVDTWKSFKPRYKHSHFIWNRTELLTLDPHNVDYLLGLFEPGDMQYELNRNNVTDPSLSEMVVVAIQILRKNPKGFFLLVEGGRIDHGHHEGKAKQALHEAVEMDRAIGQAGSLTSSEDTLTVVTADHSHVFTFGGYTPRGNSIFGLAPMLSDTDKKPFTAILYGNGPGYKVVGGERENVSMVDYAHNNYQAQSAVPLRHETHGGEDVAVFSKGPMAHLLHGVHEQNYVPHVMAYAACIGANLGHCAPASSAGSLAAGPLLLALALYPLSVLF", "experiment": "potency against alkaline phosphatase TNAP – biochemical, luminescent, dose response, SAR follow-up (AID 1056)"}, "[4]": {"biological_target": "G-protein coupled receptor 55 (Homo sapiens, UniProt Q9Y2T6)", "sequence (Q9Y2T6 whole entry)": "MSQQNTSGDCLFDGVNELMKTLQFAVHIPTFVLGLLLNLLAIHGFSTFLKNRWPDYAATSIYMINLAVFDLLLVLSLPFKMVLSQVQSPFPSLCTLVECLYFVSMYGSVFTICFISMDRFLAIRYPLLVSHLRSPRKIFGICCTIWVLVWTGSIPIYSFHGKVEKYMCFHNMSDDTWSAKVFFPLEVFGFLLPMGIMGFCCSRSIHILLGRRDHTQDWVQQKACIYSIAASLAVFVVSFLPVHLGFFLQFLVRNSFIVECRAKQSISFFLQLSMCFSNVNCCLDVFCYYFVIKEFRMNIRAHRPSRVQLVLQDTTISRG", "experiment": "selective activators of receptor GPR55 – imaging, U2OS cells, beta-arrestin-GFP redistribution, primary screen (AID 1961)", "assay_type": "functional"}, "[5]": {"biological_target": "E3 ubiquitin-protein ligase Mdm2/Protein Mdm4 (Homo sapiens, UniProt O15151+Q00987)", "sequence (Q00987 whole entry)": "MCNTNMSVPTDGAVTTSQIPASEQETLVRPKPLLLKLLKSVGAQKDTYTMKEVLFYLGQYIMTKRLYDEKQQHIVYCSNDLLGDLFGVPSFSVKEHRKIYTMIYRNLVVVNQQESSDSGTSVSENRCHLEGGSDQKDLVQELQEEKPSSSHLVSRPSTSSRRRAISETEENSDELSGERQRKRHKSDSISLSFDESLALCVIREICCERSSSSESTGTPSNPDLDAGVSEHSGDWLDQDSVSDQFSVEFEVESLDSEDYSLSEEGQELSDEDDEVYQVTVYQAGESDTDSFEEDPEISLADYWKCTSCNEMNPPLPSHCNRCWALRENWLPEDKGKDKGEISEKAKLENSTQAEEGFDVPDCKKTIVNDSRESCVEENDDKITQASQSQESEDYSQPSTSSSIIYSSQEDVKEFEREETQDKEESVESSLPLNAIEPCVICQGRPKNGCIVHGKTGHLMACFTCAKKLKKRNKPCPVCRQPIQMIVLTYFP", "sequence (O15151 whole entry)": "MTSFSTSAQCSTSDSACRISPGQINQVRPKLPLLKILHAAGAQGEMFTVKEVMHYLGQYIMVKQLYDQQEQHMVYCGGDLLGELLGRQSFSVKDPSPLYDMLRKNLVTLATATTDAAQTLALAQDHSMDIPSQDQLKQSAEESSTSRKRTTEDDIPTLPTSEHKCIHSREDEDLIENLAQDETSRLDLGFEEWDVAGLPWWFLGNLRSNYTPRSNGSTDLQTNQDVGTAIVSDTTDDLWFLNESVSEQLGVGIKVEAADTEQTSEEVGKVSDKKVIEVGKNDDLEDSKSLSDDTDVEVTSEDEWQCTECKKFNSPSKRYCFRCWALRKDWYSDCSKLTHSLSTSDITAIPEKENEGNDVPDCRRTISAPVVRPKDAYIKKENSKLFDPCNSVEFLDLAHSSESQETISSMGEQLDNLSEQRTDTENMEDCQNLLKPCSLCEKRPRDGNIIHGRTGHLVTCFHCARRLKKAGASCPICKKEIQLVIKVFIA", "experiment": "disruption of Mdm2/MdmX protein binding – luminescence detection, dose response (AID 504593)", "assay_type": "functional"}, "H9c2": {"system": "H9c2", "experiment": "cells", "assay_type": "functional, cell-based", "settings": "Rattus norvegicus, H9c2, Myocardium"}},
  "note": "Active and inactive are the calls of the source. Rule as the data show it, for most assays here: actives have a measured IC50 and inactives only a lower limit.",
  "data": [
    {"molecule": "COC(=O)c1sccc1NC(=O)c1csc(C)c1", "values": [
      {"measurement": "IC50", "setting": "Saccharomyces cerevisiae", "result": "60.4 µM (active)"},
      {"measurement": "IC50", "setting": "[1]", "result": "15.9 µM (active)"}
    ]},
    {"molecule": "O=C(CSc1nnc(-c2ccco2)[nH]1)c1ccc(O)c(O)c1", "values": [
      {"measurement": "IC50", "setting": "[2]", "result": "12.2 µM (active)"},
      {"measurement": "IC50", "setting": "[3]", "result": "21.7 µM (active)"}
    ]},
    {"molecule": "O=C(O)c1cccc(CSc2nnc(-c3ccc(Cl)cc3Cl)[nH]2)c1", "values": [
      {"measurement": "EC50", "setting": "[4]", "result": "6.41 µM (active)"}
    ]},
    {"molecule": "CC(=O)c1ccc(-c2ccc(C(=O)Nc3nc(-c4ccccn4)cs3)o2)cc1", "values": [
      {"measurement": "IC50", "setting": "[5]", "result": "3.97 µM (active)"},
      {"measurement": "IC50", "setting": "H9c2", "result": "> 79 µM (inactive)"}
    ]}
  ]
}
